# Reference: publication PMC9103758 (International Journal of Molecular Sciences, 2022)
# Legend:
# [1] = biological target: T1, VRAC-mediated chloride current (ICl, swell) in LN215 cells (Homo sapiens, UniProt Q8IWT6); experiment: Whole-cell voltage-clamp of ICl,swell in LN215 cells; format: cell-based; details: dose-dependent
# T1 construct: endogenous in cells; host or cells: LN215 human glioma cells stably expressing the halide sensor YFP-F46L/H148Q/I152L
# T1 sequence (Q8IWT6 1-810): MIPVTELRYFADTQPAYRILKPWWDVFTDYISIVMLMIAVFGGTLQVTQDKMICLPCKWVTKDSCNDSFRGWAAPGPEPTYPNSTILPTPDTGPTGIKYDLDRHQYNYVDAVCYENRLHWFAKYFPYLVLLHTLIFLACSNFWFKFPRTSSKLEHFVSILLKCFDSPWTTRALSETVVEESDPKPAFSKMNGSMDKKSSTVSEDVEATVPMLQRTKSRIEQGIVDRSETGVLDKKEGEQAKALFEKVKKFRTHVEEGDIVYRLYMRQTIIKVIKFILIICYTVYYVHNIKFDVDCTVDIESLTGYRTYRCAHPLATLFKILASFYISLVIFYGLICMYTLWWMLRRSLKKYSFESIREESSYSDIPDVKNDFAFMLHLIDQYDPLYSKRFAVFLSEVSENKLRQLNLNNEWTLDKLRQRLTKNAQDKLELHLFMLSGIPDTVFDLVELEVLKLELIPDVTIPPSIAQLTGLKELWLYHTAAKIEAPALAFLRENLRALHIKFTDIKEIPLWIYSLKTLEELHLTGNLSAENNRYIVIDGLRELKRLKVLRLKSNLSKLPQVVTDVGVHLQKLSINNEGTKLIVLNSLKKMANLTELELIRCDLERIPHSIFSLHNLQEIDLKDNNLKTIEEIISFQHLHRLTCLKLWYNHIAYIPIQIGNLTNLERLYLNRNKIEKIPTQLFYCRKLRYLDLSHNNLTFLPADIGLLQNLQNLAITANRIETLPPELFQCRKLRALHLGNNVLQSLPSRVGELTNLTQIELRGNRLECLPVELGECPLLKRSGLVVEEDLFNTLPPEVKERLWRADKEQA
# Protocol: (A) Whole-cell membrane currents were recorded at a holding potential of −50 mV by voltage steps ranging from −120 to 120 mV (in steps of 20 mV) in HEK293T cells. […] (C) Whole-cell VRAC currents were recorded at a holding potential of −50 mV by voltage steps ranging from −100 to 100 mV (in steps of 20 mV) in LN215 cells.
# For volume-regulated anion channel (VRAC) currents measurement, the isotonic bath solution contained (in mM): 150 NaCl, 6 KCL, 1.5 CaCl2, 1 MgCl2, 10 glucose, 1 HEPES, and pH 7.4 with NaOH (320 mOsm). […] The pipette solution contained (in mM): 40 CsCl, 100 Cs-methanesulfonate, 0.5 EGTA, 1 MgCl2, 1.9 CaCl2, 5 EGTA, 4 Tris−ATP, 10 HEPES, and pH 7.2 with CsOH (290 mOsm). Pipettes were pulled from borosilicate glass and had resistances of 3–5 MΩ after fire polishing. Seal resistances were between 3 and 10 GΩ. The liquid junction potential (~2.4 mV) was not corrected. After establishing the whole-cell configuration, whole-cell capacitance and series resistance were compensated with the amplifier circuitry. VRAC was activated by exposing LN215 cells to a 25% hypotonic bath solution. Whole-cell currents were elicited by applying hyperpolarizing and depolarizing voltage pulses from a holding potential of 0 mV to potentials between −100 mV and +100 mV or −120 mV and +120 mV in steps of 20 mV. Recordings were made at room temperature. […]
# [2] = biological target: T2, human ANO2 (Homo sapiens, UniProt Q9NQ90); experiment: YFP fluorescence quenching assay in FRT cells expressing human ANO2; format: cell-based; details: FRT cells expressing human ANO2, up to 10 μM
# T2 construct: expressed in transfected cells; host or cells: Fisher rat thyroid (FRT) cells
# T2 sequence (Q9NQ90 1-998): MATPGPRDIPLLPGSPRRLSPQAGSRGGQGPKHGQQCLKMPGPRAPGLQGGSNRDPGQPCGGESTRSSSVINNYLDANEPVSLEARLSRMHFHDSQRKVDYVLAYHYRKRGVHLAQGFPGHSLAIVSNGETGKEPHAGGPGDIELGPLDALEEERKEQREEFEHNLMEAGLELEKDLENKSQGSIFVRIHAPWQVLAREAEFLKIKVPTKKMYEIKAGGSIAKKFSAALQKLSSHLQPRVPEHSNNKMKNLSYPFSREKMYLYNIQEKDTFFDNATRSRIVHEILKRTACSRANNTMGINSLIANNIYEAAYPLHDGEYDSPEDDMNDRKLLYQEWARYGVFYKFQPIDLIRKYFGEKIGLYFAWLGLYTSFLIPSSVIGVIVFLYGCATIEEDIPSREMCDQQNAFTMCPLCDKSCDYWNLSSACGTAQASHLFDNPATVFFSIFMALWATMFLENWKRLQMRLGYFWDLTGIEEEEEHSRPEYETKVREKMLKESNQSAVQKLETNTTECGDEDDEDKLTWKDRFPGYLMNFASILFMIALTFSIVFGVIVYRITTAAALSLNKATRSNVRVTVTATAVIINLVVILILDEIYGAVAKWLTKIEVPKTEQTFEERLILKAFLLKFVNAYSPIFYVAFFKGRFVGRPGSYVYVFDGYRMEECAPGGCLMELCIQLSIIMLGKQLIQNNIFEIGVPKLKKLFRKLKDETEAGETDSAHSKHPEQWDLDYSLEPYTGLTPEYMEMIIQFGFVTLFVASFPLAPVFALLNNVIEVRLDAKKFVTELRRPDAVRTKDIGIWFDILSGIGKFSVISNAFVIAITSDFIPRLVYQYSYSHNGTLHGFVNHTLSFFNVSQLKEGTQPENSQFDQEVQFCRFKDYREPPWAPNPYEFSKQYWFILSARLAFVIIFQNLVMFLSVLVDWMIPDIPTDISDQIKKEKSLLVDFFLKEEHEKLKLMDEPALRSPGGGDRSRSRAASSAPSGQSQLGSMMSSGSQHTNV
# Protocol: ANO2 activity was measured using YFP fluorescence quenching assay in FRT cells expressing human ANO2.
# (D) Representative YFP fluorescence traces in FRT cells expressing human ANO2.
smiles,measurement,setting,value
"COc1cccc(C(c2c(O)c3ccccc3oc2=O)c2c(O)c3ccccc3oc2=O)c1O [VI-116, 3,3′-((2-hydroxy-3-methoxyphenyl)methylene)bis(4-hydroxy-2H-chromen-2-one)]","effect on hypotonic perfusion activated ICl, swell",[1],completely blocked
same,effect on ANO2 activity,[2],minimal effect
